Experimental data from patent publication US11220482B2, “Aminopyridinemethanol compounds and their use” (UNIVERSITE AMIENS PICARDIE JULES VERNE, priority 2017, dated 2022).
Read-outs that look alike come from different tables or passages of the source.

Columns and labels:
[1] = test system: Salmonella strains; test: Bacterial reverse mutation assay (Ames test), overall conclusion; type: cell-based, S. typhimurium; conditions: all tested doses, absence or presence of the metabolizing mixture
Procedure: Five strains of S. typhimurium were used. […] An additional strain has been chosen to detect cross-linking mutagens, hydrazines and oxidative agents: TA102, which have an AT base pair at the primary reversion site. Salmonella tester strains were gifts from Prof. B. N. Ames (Berkeley, Calif., USA). They were stored at −80° C. and regularly checked for genetic markers.
Few crystals of the frozen working strains were taken with a sterile pipette, and seeded in 10 mL of nutrient broth (NB No 2, Oxoid). Strains were grown overnight at 37° C. with shaking in Nutrient Broth No. 2, with ampicillin (25 μg/mL) for TA1535, TA97a, TA98, and TA 100, or ampicillin (25 μg/mL) plus tetracyclin (2 μg/mL) for TA 102. At the end of the incubation period, 0.1 mL of each overnight culture was mixed to 0.1 mL S9 Mix or 0.1 mL phosphate-buffered saline (PBS, pH 7.4) in 5 mL plastic tubes and various volumes of the tested samples were added to the mixtures. Each experiment included triplicate plates of four tested doses. A solvent (DMSO, 10 μL) control was added to determine the spontaneous frequency of revertants (quadruple plates). Five positive controls were also included to ensure the performance of the tester strains and the S9 Mix. […] After hardening, the plates were incubated at 37° C. for 48 hours.
At the end of the incubation period, revertants were counted with a laser colony counter equipped with a bacterial enumeration program (Spiral System Instrument Inc., Bethesda, Md., USA).
The Dunnett test was performed to determine a significant difference between the mean number of induced revertants and the mean number of spontaneous revertants.

[2] = test system: S. typhimurium TA97a
[3] = test system: Plasmodium falciparum 3D7; test: Plasmodium falciparum susceptibility assay, first round (SYBR Green I); type: cell-based; conditions: 3D7, first round, 48-h incubation, strain susceptible to CQ, decreased susceptibility to MQ, read-out: IC50 (nM) Plasmodium falciparum 3D7 (converted)
[4] = test system: CHO-K1 cells; conditions: Chinese hamster, 24 h
Procedure: All the assays were conducted in duplicate. The CHO-K1 cells, suspended in Mac Coy's 5A medium, were transferred into Labteck wells at a concentration of 100,000 cells/mL, and incubated for 24 hours at 37° C. in CO2 (5%).
The test was performed without metabolic activation: the test substances were added into cell cultures at concentrations previously defined. […] After 24 hours of incubation at 37° C. in CO2 (5%), the culture medium was removed, the cells were rinsed with phosphate buffered saline (PBS), and then returned in culture medium containing […] of cytochalasine B. After a 24-hour incubation period at 37° C., cells were rinsed with phosphate buffered saline (PBS), fixed with methanol and stained with 10% Giemsa for 20 minutes.
(§1) The analysis of results was performed under a microscope at ×1000 magnification. The antiproliferative activity of test substances was estimated by counting the number of binucleated cells relative to the number of mononucleated cells on a total of 500 cells for each dose (250 cells counted per well). The proliferation index (Cytokinesis Blocked Proliferative Index CBPI) was calculated using the following formula:
(§2) The cytostasis index (CI %), i.e. the percentage of cell replication inhibition, was calculated using the following formula: CI %−100−{100×(CBPItest material−1)/(CBPIsolvent control−1)}
(§3) The rates of micronuclei were evaluated for the presence of independent nuclear core entities in 1000 binucleated cells per well, which corresponds to 2000 cells examined by test substance dose. Micronuclei were identified as small nuclei well differentiated from cell nucleus, stained in the same manner and having a diameter less than one third of that of the cell nucleus.
(§4) Micronuclei rates obtained for different doses of test substances were compared to the negative control by a χ2 test. The assay was considered positive if: • A dose-response relationship was obtained between the rate of micronuclei and the doses tested, • At least one of these doses induced a statistically significant increase (P<0.05) in the number of micronucleated cells as compared to the negative control.

[5] = test system: S. typhimurium TA1535
[6] = test system: CHO-K1 cells; test: In vitro micronucleus assay, short-term exposure; conditions: for MNC-M (mean of micronucleated cell rates): Chinese hamster, 3 h
Procedure: All the assays were conducted in duplicate. The CHO-K1 cells, suspended in McCoy's 5A medium, were transferred into Labteck wells at a concentration of 100,000 cells/mL, and incubated for 24 hours at 37° C. in CO2 (5%).
When the test was performed without metabolic activation, the test substances were added into cell cultures at concentrations previously defined.
When the assay was performed in the presence of metabolic activation, S9 mix metabolizing mixture was added to cell cultures at a concentration of 10%. Then the test substances were added to the cell cultures at concentrations previously defined.
After 3 hours of incubation at 37° C. in CO2 (5%), the culture medium was removed, the cells were rinsed with phosphate buffered saline (PBS), and then returned to culture in McCoy's 5A medium containing […] of cytochalasin B. After a 21-hour incubation period at 37° C., cells were rinsed with phosphate buffered saline (PBS), fixed with methanol and stained with 10% Giemsa for 20 minutes.
as §1, §2, §3, §4

[7] = test system: S. typhimurium TA102
[8] = test system: S. typhimurium TA100
[9] = test system: S. typhimurium TA98; test: Bacterial reverse mutation assay (Ames test)
[10] = test system: Plasmodium falciparum W2; test: Plasmodium falciparum susceptibility assay, first round (SYBR Green I); type: cell-based; conditions: W2, first round, 48-h incubation, strain resistant to CQ, sensitive to MQ, read-out: IC50 (nM) Plasmodium falciparum W2 (converted)
[11] = Table 18 second section, "Test without S9 mix", 0.4 μg/plate
[12] = Table 18 second section, "Test without S9 mix", 0.6 μg/plate
[13] = Table 18 second section, "Test without S9 mix", 0.8 μg/plate
[14] = Table 18 second section, "Test without S9 mix", 1 μg/plate

## CCCCCNC[C@@H](O)c1cc(-c2ccc(C(F)(F)F)cc2)nc(C(F)(F)F)c1 [Compound 1a]
[1]
  mutagenic activity in Salmonella strains (revertant rates): No significant increase in revertant rates
[2]; [11]
  Number of revertants by plate (Means ± SD), TA97a: 128 ± 8^NS
[2]; [12]
  Number of revertants by plate (Means ± SD), TA97a: 133 ± 4^NS
[2]; [13]
  Number of revertants by plate (Means ± SD), TA97a: 147 ± 10^NS
[2]; [14]
  Number of revertants by plate (Means ± SD), TA97a: 151 ± 6^NS
[2]; without S9 mix, 0.4 μg/plate
  Number of revertants by plate (Means ± SD), TA97a: 161 ± 8^NS
[2]; without S9 mix, 0.6 μg/plate
  Number of revertants by plate (Means ± SD), TA97a: 155 ± 6^NS
[2]; without S9 mix, 0.8 μg/plate
  Number of revertants by plate (Means ± SD), TA97a: 159 ± 8^NS
[2]; without S9 mix, 1 μg/plate
  Number of revertants by plate (Means ± SD), TA97a: 154 ± 9^NS
[3]
  IC50: 52.4 ± 1.7 nM
[4]; 5 μM
  BI (binucleated cells): 417
  CBPI (Cytokinesis-Blocked Proliferative Index): 1.83
  CI % (cytostasis index): 8%
  MNC1 (micronucleated cell rate): 10 ‰
  MNC2 (micronucleated cell rate): 9 ‰
  MNC-M (mean of micronucleated cell rates): 9.5 ± 0.7 ‰
  MONO (mononucleated cells): 83
[4]; 10 μM
  BI (binucleated cells): 323
  CBPI (Cytokinesis-Blocked Proliferative Index): 1.64
  CI % (cytostasis index): 29%
  MNC1 (micronucleated cell rate): 9 ‰
  MNC2 (micronucleated cell rate): 11 ‰
  MNC-M (mean of micronucleated cell rates): 10 ± 1.4 ‰
  MONO (mononucleated cells): 177
[4]; 50 μM
  BI (binucleated cells): 226
  CBPI (Cytokinesis-Blocked Proliferative Index): 1.46
  CI % (cytostasis index): 52%
  MNC1 (micronucleated cell rate): 10 ‰
  MNC2 (micronucleated cell rate): 12 ‰
  MNC-M (mean of micronucleated cell rates): 11 ± 1.4 ‰
  MONO (mononucleated cells): 274
[5]; [11]
  Number of revertants by plate (Means ± SD), TA1535: 29 ± 8^NS
[5]; [12]
  Number of revertants by plate (Means ± SD), TA1535: 29 ± 9^NS
[5]; [13]
  Number of revertants by plate (Means ± SD), TA1535: 32 ± 8^NS
[5]; [14]
  Number of revertants by plate (Means ± SD), TA1535: 27 ± 4^NS
[5]; without S9 mix, 0.4 μg/plate
  Number of revertants by plate (Means ± SD), TA1535: 25 ± 6^NS
[5]; without S9 mix, 0.6 μg/plate
  Number of revertants by plate (Means ± SD), TA1535: 30 ± 5^NS
[5]; without S9 mix, 0.8 μg/plate
  Number of revertants by plate (Means ± SD), TA1535: 31 ± 4^NS
[5]; without S9 mix, 1 μg/plate
  Number of revertants by plate (Means ± SD), TA1535: 26 ± 6^NS
[6]
  in vitro micronucleus assay result (clastogenic and/or aneugenic activities): negative results
[6]; 10 μM
  MNC-M (mean of micronucleated cell rates): 9.5 ± 0.7 ‰
[6]; 50 μM
  MNC-M (mean of micronucleated cell rates): 10 ± 1.4 ‰
[6]; 100 μM
  MNC-M (mean of micronucleated cell rates): 11 ± 1.4 ‰
[7]; [11]
  Number of revertants by plate (Means ± SD), TA102: 387 ± 8^NS
[7]; [12]
  Number of revertants by plate (Means ± SD), TA102: 395 ± 9^NS
[7]; [13]
  Number of revertants by plate (Means ± SD), TA102: 379 ± 8^NS
[7]; [14]
  Number of revertants by plate (Means ± SD), TA102: 378 ± 5^NS
[7]; without S9 mix, 0.4 μg/plate
  Number of revertants by plate (Means ± SD), TA102: 319 ± 12^NS
[7]; without S9 mix, 0.6 μg/plate
  Number of revertants by plate (Means ± SD), TA102: 308 ± 10^NS
[7]; without S9 mix, 0.8 μg/plate
  Number of revertants by plate (Means ± SD), TA102: 325 ± 13^NS
[7]; without S9 mix, 1 μg/plate
  Number of revertants by plate (Means ± SD), TA102: 318 ± 10^NS
[8]; [11]
  Number of revertants by plate (Means ± SD), TA100: 185 ± 8
[8]; [12]
  Number of revertants by plate (Means ± SD), TA100: 183 ± 7^NS
[8]; [13]
  Number of revertants by plate (Means ± SD), TA100: 172 ± 6^NS
[8]; [14]
  Number of revertants by plate (Means ± SD), TA100: 177 ± 4^NS
[8]; without S9 mix, 0.4 μg/plate
  Number of revertants by plate (Means ± SD), TA100: 189 ± 8
[8]; without S9 mix, 0.6 μg/plate
  Number of revertants by plate (Means ± SD), TA100: 192 ± 9^NS
[8]; without S9 mix, 0.8 μg/plate
  Number of revertants by plate (Means ± SD), TA100: 215 ± 13^NS
[8]; without S9 mix, 1 μg/plate
  Number of revertants by plate (Means ± SD), TA100: 196 ± 14^NS
[9]; [11]
  Number of revertants by plate (Means ± SD), TA98: 28 ± 3^NS
[9]; [12]
  Number of revertants by plate (Means ± SD), TA98: 25 ± 5^NS
[9]; [13]
  Number of revertants by plate (Means ± SD), TA98: 31 ± 6^NS
[9]; [14]
  Number of revertants by plate (Means ± SD), TA98: 25 ± 3^NS
[9]; without S9 mix, 0.4 μg/plate
  Number of revertants by plate (Means ± SD), TA98: 30 ± 4^NS
[9]; without S9 mix, 0.6 μg/plate
  Number of revertants by plate (Means ± SD), TA98: 28 ± 8^NS
[9]; without S9 mix, 0.8 μg/plate
  Number of revertants by plate (Means ± SD), TA98: 31 ± 6^NS
[9]; without S9 mix, 1 μg/plate
  Number of revertants by plate (Means ± SD), TA98: 24 ± 5^NS
[10]
  IC50: 8.6 ± 1 nM
